Structures are written as SMILES. Read-outs that look alike come from different tables or passages of the source.

Consider two molecules from publication PMC12655551, “Design, Synthesis, and Evaluation of Pyrrole-Based Selective MAO-B Inhibitors with Additional AChE Inhibitory and Neuroprotective Properties Identified via Virtual Screening” (Pharmaceuticals, 2025).

Series [1] concerns isolated rat brain mitochondria. Nature of the series: Toxicity of compounds alone on isolated rat brain mitochondria (MDA, GSH). The conditions noted are these: compound alone, 100 μM, vs non-treated mitochondria. It is filed as cell-based. The method, then: (§1) Two types of buffers were used for the isolation of the rat brain synaptosomes and mitochondria. Buffer A was 5 mM HEPES and 0.32 M Sucrose; Buffer B was 290 mM NaCl, 0.95 mM MgCl2 × 2H2O, 10 mM KCl, 2.4 mM CaCl2 × 2H2O, 2.1 mM NaH2PO4, 44 mM HEPES, 13 mM D-Glucose. For the gradient centrifugation, Percoll reagent was used. A stock solution of 90% Percoll was used to prepare 16%, 10% and 7.5% solutions. All the solutions were used as described below. Immediately after harvesting, synaptosomes, microsomes, and mitochondria were incubated with the exam compounds for 1 h. For assessing the possible neurotoxicity of the most MAOB active compounds, the sub-cellular fractions were incubated with 100 µM of them, and for evaluating their possible neuroprotective and antioxidant activities in different models of neurotoxicity, the sub-cellular fractions were incubated with 50µM of them. The protein measurement of all the sub-cellular fractions was made by the method of Lowry et al., 1951 [57].
The mitochondria were prepared by multiple differential fractionation using a Percoll gradient.
After incubation of the mitochondria, 0.3 mL 0.2% TBA and 0.25 mL sulfuric acid (0.05 M) were added to stop the reaction. The tubes were maintained at 100 °C for 30 min. In the next stage, centrifugation of the tubes was carried out at 3500× g for 10 min. Assessment of the total quantity of MDA formed in each sample was measured in the supernatant at 532 nm.
After incubation of mitochondria, 0.04% DTNB was mixed with the mitochondrial suspensions in 0.1 M phosphate buffer (pH 7.4). The absorbance of the yellow product was measured at 412 nm.

Series [2] has as its system isolated rat brain synaptosomes. The series can be described thus: Neurotoxicity of compounds alone on isolated rat brain synaptosomes (MTT viability, GSH). It is filed as cell-based. The conditions noted are these: compound alone, 100 μM, vs non-treated synaptosomes. As for the experimental part: as §1
(§2) The synaptosomes were prepared from rat brains by multiple sub-cellular fractionation using a Percoll gradient.
(§3) After the incubation, the synaptosomes were centrifuged three times at 15,000× g for 1 min. MTT-test was performed to determine synaptosomal vitality by the method described by Mungarro-Menchaca et al..
(§4) The level of GSH was determined by measuring the non-protein SH-groups after precipitation of the proteins with trichloroacetic acid (TCA). The presence of thiols in the supernatant was determined using Elmman’s reagent. The resulting yellow color was measured spectrophotometrically (λ = 412 nm).

In series [3] the target is T1, recombinant human MAO-A (hMAOA) (Homo sapiens, UniProt P21397).
T1 sequence (P21397 1-527): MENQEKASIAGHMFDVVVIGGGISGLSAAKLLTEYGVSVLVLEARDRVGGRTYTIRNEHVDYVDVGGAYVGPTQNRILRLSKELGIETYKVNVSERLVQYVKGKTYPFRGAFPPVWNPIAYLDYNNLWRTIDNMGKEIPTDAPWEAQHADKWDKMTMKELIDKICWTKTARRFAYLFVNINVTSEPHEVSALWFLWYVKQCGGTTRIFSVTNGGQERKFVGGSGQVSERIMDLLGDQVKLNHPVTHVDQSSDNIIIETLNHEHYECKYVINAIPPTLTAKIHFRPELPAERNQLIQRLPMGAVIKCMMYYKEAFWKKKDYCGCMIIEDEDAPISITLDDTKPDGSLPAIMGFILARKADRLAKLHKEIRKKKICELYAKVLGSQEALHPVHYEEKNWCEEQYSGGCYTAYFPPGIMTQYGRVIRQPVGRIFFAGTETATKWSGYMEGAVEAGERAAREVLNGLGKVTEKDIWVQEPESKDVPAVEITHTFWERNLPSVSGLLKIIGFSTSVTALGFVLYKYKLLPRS
Nature of the series: MAO-A inhibition, fluorometric Amplex UltraRed assay. In kind it is biochemical. The conditions noted are these: for inhibition at 1 µM: read-out: Inhibition Activity 1 µM MAO-A. The method, then: Monoamine oxidase (MAO) activity for both recombinant human MAO-A (hMAOA) and MAO-B (hMAOB) was assessed using a fluorometric assay based on the Amplex® UltraRed reagent. This method, originally reported by Bautista-Aguilera et al. and later adapted with minor changes by Kasabova-Angelova et al., detects hydrogen peroxide or peroxidase activity present in enzymes or biological samples. In this assay, Amplex® Red reacts in a 1:1 molar ratio with hydrogen peroxide in the presence of peroxidase, producing the red-fluorescent compound resorufin. Due to resorufin’s strong extinction coefficient (58,000 ± 5000 cm^−1·M^−1), measurements could be accurately taken using either fluorometric or spectrophotometric methods. […] The control conditions included the use of purified hMAOA or hMAOB in reaction buffer, enzyme solutions with hydrogen peroxide, and buffer alone. All the test compounds were initially prepared at a 1 µM final concentration. These compounds were combined with either hMAOA or hMAOB and loaded into a 96-well plate (with eight replicates per test compound), followed by incubation for 30 min at 37 °C in the dark. Subsequently, a 50 µL detection mix was added to each well. This mix contained Amplex® Red, horseradish peroxidase (HRP), and tyramine substrate, all prepared in a reaction buffer. As this enzymatic reaction proceeded continuously, the fluorescence signal was recorded every 30 min (at 0, 30, 60, 90, 120, and 150 min) to track enzymatic kinetics.

For series [4], the system named is isolated rat brain synaptosomes. Nature of the series: 6-OHDA-induced neurotoxicity in isolated rat brain synaptosomes. In kind it is cell-based. The conditions noted are these: compound 50 µM with 6-OHDA 150 μM. As for the experimental part:
as §1, §2
This in vitro model resembles the neurodegenerative processes occurring in PD. Dopamine metabolism and oxidation led to the formation of reactive oxygen species (ROS) and reactive quinones. These processes were catalyzed by the MAOB enzyme. They induced dopamine neurotoxicity and neurodegeneration. The synaptosomes were incubated with 150 μM 6-OHDA for 1 h.
as §3, §4

For series [5], the system named is isolated rat brain microsomes. The series can be described thus: Pro-oxidant effect of compounds alone on isolated rat brain microsomes (MDA). It is filed as cell-based. Conditions: compound alone, 100 μM, vs non-treated microsomes. The method, then:
as §1
The brain was homogenized in 9 vol. of 0.1 M Tris buffer containing 0.1 mM Dithiothreitol, 0.1 mM Phenylmethylsulfonyl fluoride, 0.2 mM EDTA, 1.15% KCl, and 20% (v/v) glycerol at pH 7.4. The homogenate was centrifuged twice at 17,000× g for 30 min. […]
The quantity of the lipid peroxidation product MDA was assessed using the method described by Deby and Goutier.

As a reminder, the IC50 is the midpoint of a concentration-inhibition curve. A word on the inhibition: it is the share of the control response that was lost under treatment. On to `Cc1ccc(C)n1C(Cc1cnc[nH]1)C(=O)O` (stereo not shown) [EM-DC-19, 2-(2,5-dimethyl-1H-pyrrol-1-yl)-3-(2H-imidazol-4-yl)propanoic acid], for which, in series [1], the “decrease of GSH level compared to the control” value (“decrease of GSH level” below) is 25% and the “increase of MDA production compared to the control” value (“increase of MDA production” below) is recorded as 50%. Also, in series [2], the “decrease of GSH level” value was 30% and the “decrease of synaptosomal viability compared to the control” value stood at 25%. Moreover, in series [3], the IC50 was greater than 100 µM and the inhibition at 1 µM is 99 ± 6.1%. Moreover, the “preservation of GSH level compared to toxic 6-OHDA” value in series [4] stood at 20%. For the same molecule, the “increase of MDA production” value in series [5] is given as 20%.
With `Cc1ccc(C)n1-c1ccc(CC(=O)O)cc1` [EM-DC-27, [4-(2,5-dimethyl-1H-pyrrol-1-yl)phenyl]acetic acid], in series [1], the “decrease of GSH level” value is recorded as 25% and the “increase of MDA production” value was found to be 70%. Also, in series [2], the “decrease of GSH level” value was determined as 30% and the “decrease of synaptosomal viability compared to the control” value is 25%. Moreover, the inhibition at 1 µM in series [3] (1 µM compound) amounted to 99 ± 7.1%. Also, the IC50 in series [3] (means ± SD of three experiments, read-out: MAO-A IC50) was greater than 100 µM. The “preservation of GSH level compared to toxic 6-OHDA” value in series [4] was found to be 20%. The “increase of MDA production” value in series [5] was 40%.
